Where two headings read alike, the source gives them in different places.
Legend:
C57/BL6 mice = test: Example 47: luciferase mRNA IM, SC, IV in mice, bioluminescence imaging (Tables 76-78); type: in vivo
Protocol: Modified RNA was delivered to C57/BL6 mice intramuscularly, subcutaneously, or intravenously to evaluate the bio-distribution of modified RNA using luciferase. A formulation buffer used with all delivery methods contained 150 mM sodium chloride, 2 mM calcium chloride, 2 mM Na+-phosphate which included 1.4 mM monobasic sodium phosphate and 0.6 mM of dibasic sodium phosphate, and 0.5 mM ethylenediaminetetraacetic acid (EDTA) was adjusted using sodium hydroxide to reach a final pH of 6.5 before being filtered and sterilized. A 1× concentration was used as the delivery buffer. To create the lipoplexed solution delivered to the mice, in one vial […] was equilibrated for 10 minutes at room temperature in the delivery buffer and in a second vial 10 μl RNAiMAX™ was equilibrated for 10 minutes at room temperature in the delivery buffer. After equilibrium, the vials were combined and delivery buffer was added to reach a final volume of 100 μl which was then incubated for 20 minutes at room temperature. Luciferin was administered by intraperitoneal injection (IP) at 150 mg/kg to each mouse prior to imaging during the plateau phase of the luciferin exposure curve which was between 15 and 30 minutes. To create luciferin, 1 g of D-luciferin potassium or sodium salt was dissolved in 66.6 ml of distilled phosphate buffer solution (DPBS), not containing Mg2+ or Ca2+, to make a 15 mg/ml solution. The solution was gently mixed and passed through a 0.2 μm syringe filter, before being purged with nitrogen, aliquoted and frozen at −80° C. while being protected from light as much as possible. The solution was thawed using a waterbath if luciferin was not dissolved, gently mixed and kept on ice on the day of dosing.
Whole body images were taken of each mouse 2, 8 and 24 hours after dosing. Tissue images and serum was collected from each mouse 24 hours after dosing. Mice administered doses intravenously had their liver, spleen, kidneys, lungs, heart, peri-renal adipose tissue and thymus imaged. Mice administered doses intramuscularly or subcutaneously had their liver, spleen, kidneys, lungs, peri-renal adipose tissue, and muscle at the injection site. From the whole body images the bioluminescence was measured in photon per second for each route of administration and dosing regimen.
The bioluminescence average for the luciferase expression signals for each group at 2, 8 and 24 hours after dosing are shown in Table 76.
(§1) Mice were subcutaneously (S.C.) administered either modified luciferase mRNA (Naked-Luc), lipoplexed modified luciferase mRNA (Lipoplex-luc), lipoplexed modified G-CSF mRNA (Lipoplex-G-CSF) or the formation buffer at a single dose of 50 μg of modified mRNA in an injection volume of 100 μl for each formulation. The bioluminescence average for the luciferase expression signals for each group at 2, 8 and 24 hours after dosing are shown in Table 77.
as §1, with “intravenously (I.V.)” for “subcutaneously (S.C.)”, “signal in the spleen from” for “signals for”, “2” for “2, 8 and 24”, “is” for “are”, “78.” for “77.”

[1] = system: peripheral blood mononuclear cells (PBMC); test: Example 56: percent modification, PBMC G-CSF ELISA (Table 85); type: cell-based, human; settings: 22 hours after transfection
Protocol: 480 ng of G-CSF mRNA modified with 5-methylcytosine (5mC) and pseudouridine (pseudoU) or unmodified G-CSF mRNA was transfected with 0.4 uL of Lipofectamine 2000 into peripheral blood mononuclear cells (PBMC) from three normal blood donors (D1, D2, and D3). […] The supernatant was harvested and run by ELISA 22 hours after transfection to determine the protein expression. The expression of IFN-alpha and TNF-alpha may be a secondary effect from the transfection of the G-CSF mRNA.

Sprague Dawley rats = test: Example 60: G-CSF/Factor IX mRNA IM in rats, serum G-CSF ELISA (Table 94); type: in vivo; settings: I.M., 400 ug in 100 ul, 5% sucrose, 8 hours after injection
Protocol: Protein production of modified mRNA was evaluated by delivering modified G-CSF mRNA or modified Factor IX mRNA to female Sprague Dawley rats (n=6). […] Blood was collected 8 hours after injection and the G-CSF protein level in serum was measured by ELISA.

mice = settings: for Serum Concentration 8-12 hours after administration: G-CSF; for G-CSF Protein Expression, Conc: LNP IV, mice, 8 hrs
C57BL/6 = test: Example 115 (second): human EPO mRNA in mannitol multi-dose, serum EPO (Table 187); type: in vivo, mice; settings: IM 2.5 mg/kg per dose
Protocol: Serum was collected from the mice 24 hours post the second, fourth, sixth and eighth doses.

Molecule: Luciferase: luciferase mRNA, SEQ ID NO: 14, Cap1, fully modified with 5-methylcytosine and pseudouridine
- Bioluminescence (C57/BL6 mice; I.M., Dose 5 ug, 2 hours): 224,000 photon/sec
- Bioluminescence (C57/BL6 mice; I.M., Dose 5 ug, 8 hours): 683,000 photon/sec
- Bioluminescence (C57/BL6 mice; I.M., Dose 5 ug, 24 hours): 927,000 photon/sec
- Bioluminescence (C57/BL6 mice; I.M., Dose 50 ug, 2 hours): 446,000 photon/sec
- Bioluminescence (C57/BL6 mice; I.M., Dose 50 ug, 8 hours): 766,000 photon/sec
- Bioluminescence (C57/BL6 mice; I.M., Dose 50 ug, 24 hours): 509,000 photon/sec
- Bioluminescence of the Spleen (C57/BL6 mice; I.V., 50 μg, 2 hours after dosing): 58,400 photon/sec
- Bioluminescence (C57/BL6 mice; S.C., 50 μg, 2 hours): 3,700,000 photon/sec
- Bioluminescence (C57/BL6 mice; S.C., 50 μg, 8 hours): 8,060,000 photon/sec
- Bioluminescence (C57/BL6 mice; S.C., 50 μg, 24 hours): 2,080,000 photon/sec
- G-CSF Expression ([1]; PBMC donor D1, 480 ng mRNA): 90.2 pg/mL
- G-CSF Expression ([1]; PBMC donor D2, 480 ng mRNA): 0.0 pg/mL
- G-CSF Expression ([1]; PBMC donor D3, 480 ng mRNA): 22.1 pg/mL

B1: G-CSF: modified mRNA encoding human G-CSF, SEQ ID NO: 4, Cap1, fully modified with 5-methylcytosine and pseudouridine; LNP-formulated in Examples 16-22 (nucleic acid)
chain: GGGAAAUAAGAGAGAAAAGAAGAGUAAGAAGAAAUAUAAGAGCCACCAUGGCCGGUCCCGCGACCCAAAGCCCCAUGAAACUUAUGGCCCUGCAGUUGCUGCUUUGGCACUCGGCCCUCUGGACAGUCCAAGAAGCGACUCCUCUCGGACCUGCCUCAUCGUUGCCGCAGUCAUUCCUUUUGAAGUGUCUGGAGCAGGUGCGAAAGAUUCAGGGCGAUGGAGCCGCACUCCAAGAGAAGCUCUGCGCGACAUACAAACUUUGCCAUCCCGAGGAGCUCGUACUGCUCGGGCACAGCUUGGGGAUUCCCUGGGCUCCUCUCUCGUCCUGUCCGUCGCAGGCUUUGCAGUUGGCAGGGUGCCUUUCCCAGCUCCACUCCGGUUUGUUCUUGUAUCAGGGACUGCUGCAAGCCCUUGAGGGAAUCUCGCCAGAAUUGGGCCCGACGCUGGACACGUUGCAGCUCGACGUGGCGGAUUUCGCAACAACCAUCUGGCAGCAGAUGGAGGAACUGGGGAUGGCACCCGCGCUGCAGCCCACGCAGGGGGCAAUGCCGGCCUUUGCGUCCGCGUUUCAGCGCAGGGCGGGUGGAGUCCUCGUAGCGAGCCACCUUCAAUCAUUUUUGGAAGUCUCGUACCGGGUGCUGAGACAUCUUGCGCAGCCGUGAAGCGCUGCCUUCUGCGGGGCUUGCCUUCUGGCCAUGCCCUUCUUCUCUCCCUUGCACCUGUACCUCUUGGUCUUUGAAUAAAGCCUGAGUAGGAAG
modifications: Cap1, 5-methylcytosine, pseudouridine
- G-CSF protein in rat serum (Sprague Dawley rats): 19.37 pg/mL
- Serum Concentration 8-12 hours after administration (mice; IM, 100 ug): ~20 to 80 pg/mL
- Serum Concentration 8-12 hours after administration (mice; IV (LNP), 1 ug): ~20,000 pg/ml
- Serum Concentration 8-12 hours after administration (mice; IV (LNP), 10 ug): ~1,000,000 pg/ml
- Serum Concentration 8-12 hours after administration (mice; IV (LNP), 100 ug): ~5,000,000 pg/ml
- Serum Concentration 8-12 hours after administration (mice; IV (Lipoplex), 100 ug): ~30 pg/mL
- Serum Concentration 8-12 hours after administration (mice; SC, 100 ug): ~10 to 40 pg/mL
- G-CSF Protein Expression, Conc (mice; dose 10 ug): 1204.82 ng/mL
- G-CSF Protein Expression, Conc (mice; dose 100 ug): 4722.20 ng/mL

B2: EPO: modified mRNA encoding human erythropoietin, SEQ ID NO: 7, Cap1, fully modified with 5-methylcytosine and pseudouridine; LNP NPA-060-1 in Examples 17-22 (nucleic acid)
chain: GGGAAAUAAGAGAGAAAAGAAGAGUAAGAAGAAAUAUAAGAGCCACCAUGGGAGUGCACGAGUGUCCCGCGUGGUUGUGGUUGCUGCUGUCGCUCUUGAGCCUCCCACUGGGACUGCCUGUGCUGGGGGCACCACCCAGAUUGAUCUGCGACUCACGGGUACUUGAGAGGUACCUUCUUGAAGCCAAAGAAGCCGAAAACAUCACAACCGGAUGCGCCGAGCACUGCUCCCUCAAUGAGAACAUUACUGUACCGGAUACAAAGGUCAAUUUCUAUGCAUGGAAGAGAAUGGAAGUAGGACAGCAGGCCGUCGAAGUGUGGCAGGGGCUCGCGCUUUUGUCGGAGGCGGUGUUGCGGGGUCAGGCCCUCCUCGUCAACUCAUCACAGCCGUGGGAGCCCCUCCAACUUCAUGUCGAUAAAGCGGUGUCGGGGCUCCGCAGCUUGACGACGUUGCUUCGGGCUCUGGGCGCACAAAAGGAGGCUAUUUCGCCGCCUGACGCGGCCUCCGCGGCACCCCUCCGAACGAUCACCGCGGACACGUUUAGGAAGCUUUUUAGAGUGUACAGCAAUUUCCUCCGCGGAAAGCUGAAAUUGUAUACUGGUGAAGCGUGUAGGACAGGGGAUCGCUGAUAAGCUGCCUUCUGCGGGGCUUGCCUUCUGGCCAUGCCCUUCUUCUCUCCCUUGCACCUGUACCUCUUGGUCUUUGAAUAAAGCCUGAGUAGGAAG
modifications: Cap1, 5-methylcytosine, pseudouridine
- Eighth Dose EPO (C57BL/6; serum 24 hours post eighth dose): 7.9 pg/mL
- Fourth Dose EPO (C57BL/6; serum 24 hours post fourth dose): 44.3 pg/mL
- Second Dose EPO (C57BL/6; serum 24 hours post second dose): 43.5 pg/mL
- Sixth Dose EPO (C57BL/6; serum 24 hours post sixth dose): 46.3 pg/mL

From patent US20190142971A1, “FORMULATION AND DELIVERY OF MODIFIED NUCLEOSIDE, NUCLEOTIDE, AND NUCLEIC ACID COMPOSITIONS” (ModernaTX, Inc., priority 2013, published 2019)
